Source: publication PMC8583417, “Evaluation of the Antimicrobial Efficacy of N-Acetyl-L-Cysteine, Rhamnolipids, and Usnic Acid—Novel Approaches to Fight Food-Borne Pathogens” (International Journal of Molecular Sciences, 2021)

Legend:
[1] = tested on: S. Enteritidis ATCC 13076; test: CLSM analysis, biofilm removal (preformed biofilm); type: cell-based, Salmonella enterica Enteritidis; conditions: 20 h exposure, mean ± SD; for Thickness (µm) subCBM80: substance at subinhibitory concentration
Description: (§1) Biofilm prevention and removal analyses were performed using previously determined minimum inhibitory and subinhibitory concentrations for metabolic activity (MICBM80, subCBM80; MICMPB80, subCMPB80) of NAC, RLs, and UA specific for each tested strain. Selected concentrations were used to evaluate the inhibition of biofilm formation (biofilm prevention) and the reduction in previously formed biofilms (biofilm removal) for the same set of microorganisms, with the exception of S. Infantis, which was excluded from the analysis due to its inability to form biofilm in the selected microtiter plate. Biofilm prevention and removal were observed using CLSM with specific staining to distinguish between live and membrane-compromised cells. Images were analyzed to evaluate (i). the total volume of the biomass, (ii). ratios of live and membrane-compromised cells, and (iii). to calculate biofilm volume reduction for individual organisms after the respective treatment types. The total biofilm volume was normalized by the area of the well and expressed as an average biofilm thickness. Complete data are provided in Supplementary Materials (Tables S1–S8).
At first, bacterial suspensions were cultivated in microtiter plates to produce overnight biofilms (18 h). […] cells were then washed out, and the remaining biofilms were further cultivated for an additional 20 h with selected compounds. Following biofilm cultivation, biomass was observed using CLSM with live/membrane-compromised cell staining. Biomass images from biofilm removal treatments were similar to results from biofilm prevention, where biomass was highly diversified across the bacterial species and strains. Visually, biomass images were fairly consistent within the quadruplicates for each tested organism. Non-treated biofilms of S. aureus contained consistent biomass spread across the well (S. aureus 816) or grown around the edges (S. aureus 1241). […]
For both inhibition and reduction of biofilms, overnight cultures from BHI were diluted in TSB + 1% Glc to reach an absorbance of 0.08 to 0.1 at 625 nm. […]

L. monocytogenes 149 = test: CLSM analysis, biofilm prevention; type: cell-based, Listeria monocytogenes; conditions: for proportion of membrane-compromised cells: 24 h; for Thickness (µm) MICBM80 / Thickness (µm) subCBM80: 24 h exposure; for Thickness (µm) MICBM80: substance at its MICBM80, mean ± SD; for Thickness (µm) subCBM80: substance at subinhibitory concentration, mean ± SD
Description: as §1
For both inhibition and reduction of biofilms, overnight cultures from BHI were diluted in TSB + 1% Glc to reach an absorbance of 0.08 to 0.1 at 625 nm. The inoculum (150 µL) was transferred into wells of the 96-well flat-bottomed Ibidiμ-Plate (Ibidi, Gräfelfing, Germany) and mixed with 150 µL of each of the three tested substances in technical quadruplicates, followed by incubation at 37 °C for 24 h. Simultaneously, the prepared bacterial suspensions were inoculated to an additional microtiter plate (200 µL) and allowed to form biofilm overnight (18 h at 37 °C). After the incubation, the content of the well was drained off, and 200 µL of each of the three tested substances was added to the plate, which was then incubated for an additional 20 h. The used concentrations of the substances represented the subinhibitory and minimum inhibitory concentrations for metabolic activity (subCBM80, MICBM80; subCMPB80, MICMPB80). Both setups contained a positive control of the bacterial growth (inoculum mixed with sterile TSB + 1% Glc medium) and a control monitoring microbial contamination (sterile medium). Non-treated wells were used as a positive control for comparison between non-treated and treated biofilm mass.
Prior to the imaging, the wells were stained with the LIVE/DEAD® BacLight™ Bacterial Viability Kit (Thermo Fisher Scientific, MA, USA) following the manufacturer’s guidelines and Drago et al.. Briefly, equal volumes of SYTO® 9 and propidium iodide were combined with the sterile distilled water to reach a final concentration of […]. The biofilm mass was stained using 300 µL of the staining solution per well followed by incubation at 37 °C in the dark for 15 min. Stained wells were washed once with sterile distilled water, which was then added to each well (300 µL). Images were acquired with an inverted Leica SP5 CLSM using a 1.25× dry objective (WD 3.7 mm, Z-resolution 27 µm, up to 24 Z-stacks per well) to visualize an entire well. Samples were kept at the cultivation conditions (37 °C, 5% CO2, 90% humidity) with an OkoLabs stage top environmental chamber (Oko Labs, PA, USA). Fluorophore excitation lasers and emission bandwidths were as follows: SYTO® 9 (ex/em 485/498 nm) 488 nm excitation, 495 to 550 nm emission collection; propidium iodide (ex/em 535/617 nm) 561 nm excitation, 595 to 650 nm emission collection. The laser beam scanned the visual field at a frequency of 600 Hz. The wells were captured in snapshots of 1024 × 1024 pixels representing the area of 153.76 mm^2.
All collected images were statistically evaluated to quantify biovolume utilizing the surface estimation procedure described in Parker et al.. […]

| SMILES | Thickness (µm) MICBM80 ([1]; substance at its MIC) | Thickness (µm) subCBM80 [1] | proportion of membrane-compromised cells (L. monocytogenes 149; MIC and subinhibitory concentration) | Thickness (µm) MICBM80 (L. monocytogenes 149) | Thickness (µm) subCBM80 (L. monocytogenes 149) | proportion of membrane-compromised cells (L. monocytogenes 149; MIC) |
| --- | --- | --- | --- | --- | --- | --- |
| CC(=O)N[C@@H](CS)C(=O)O [NAC, N-Acetyl-L-cysteine] | 212 ± 16.6 µm | 229 ± 54.9 µm | up to 25% | 86.5 ± 2.6 µm | 238 ± 32 µm | – |
| CC(=O)c1c(O)c(C)c(O)c2c1OC1=CC(=O)C(C(C)=O)C(=O)C12C (single isomer, unassigned; (+)) [UA, (+)-usnic acid] | – | 203 ± 19.8 µm | – | 175 ± 79.4 µm | 268 ± 68.9 µm | up to 15% |
